Test results published in US10494356B2, “Compound promoting osteoblast differentiation and inhibiting adipocyte differentiation, preparation method thereof and application thereof” (SUNG KYUN BIOTECH CO., LTD., priority 2016, dated 2019).

Legend:
Format in all cases: cell-based, mouse
C3H10T1/2 cells [1] = test: ALP (alkaline phosphatase) production during differentiation of C3H10T1/2 cells into osteoblasts (ALP staining, -b value)
Protocol: The C3H10T1/2 cells derived from mouse embryo fibroblasts are pluripotent stem cells that can differentiate into various cell lineages including osteoblasts. Because one of the characteristics of osteoblasts is the ALP (alkaline phosphatase) activity, the differentiation of the C3H10T1/2 cells into osteoblasts was measured based on the ALP activity.
The C3H10T1/2 cells were cultured with a DMEM medium supplemented with 10% FBS and 1% penicillin/streptomycin under the condition of 37° C. and 5% CO2. The C3H10T1/2 cells were cultured on a 6-well plate at a concentration of 2.5×10^4/mL with a medium containing 10 mM β-glycerophosphate and 50 μg/mL ascorbic acid for osteocyte differentiation. The differentiation was performed for 9 days after adding the NK11 compound at 0.1, 0.5, 1 and 5 μM, while replacing the medium with 3-day intervals. Then, ALP staining was performed using 5-bromo-4-chloro-3-indolyl phosphate/nitro blue tetrazolium (BCIP/NBT).
Then, the Lab color space was measured using the image files of the ALP-stained well plate.

[2] = tested on: ALP mRNA in C3H10T1/2 cells; test: mRNA expression of osteoblast differentiation factor ALP (real-time PCR); conditions: for expression level of ALP, osteogenesis marker (mRNA): Test Example 3: NK11 at 1 μM, other compounds at 5 μM
Excerpt: (§1) The mRNA expression levels of the osteoblast differentiation factor and the adipocyte differentiation factor in the cells treated with the NK11 compound were investigated.
(§2) First, the expression level of the osteoblast differentiation factor ALP was investigated while differentiating the C3H10T1/2 cells into osteoblasts in the same manner as in […]. Also, the expression levels of the adipocyte differentiation factors PPARγ, aP2 and CD36 compound were investigated while differentiating the C3H10T1/2 cells into adipocytes in the same manner as in Test Example 1.
(§3) Total RNA was extracted using TRIzol (Invitrogen). 1 μg of the isolated RNA was synthesized into cDNA by adding random primers, dNTP and PrimeScript™ reverse transcriptase (Takara). The synthesized cDNA was subjected to real-time PCR using primers and SYBR Premix Ex Taq (Takara).

[3] = tested on: PPARγ, aP2 and CD36 mRNAs in C3H10T1/2 cells; test: mRNA expression of adipocyte differentiation factors PPARγ, aP2 and CD36 (real-time PCR)
Excerpt: as §1, §2, §3

C3H10T1/2 cells [4] = test: Fat production during differentiation of C3H10T1/2 cells into adipocytes (Oil Red O staining); conditions: for effect of inhibiting adipocyte differentiation: Test Example 3: NK11 at 1 μM, other compounds at 5 μM, vs negative control group (DMSO)
Protocol: After plating the cells on a 6-well plate in the same manner as in Test Example 1, they were cultured for 9 days in a medium containing 1 μM dexamethasone, 5 μg/mL insulin and 1 μM troglitazone for adipocyte differentiation after adding the NK11 compound at 0.1, 0.5, 1 and 5 μM. After completion of differentiation, the medium was removed and the cells were fixed with 10% neutral buffered formalin and stained with 0.5% Oil Red O solution.
Then, the Lab color space was measured using the image files of the Oil Red O-stained well plate.

[5] = Test Example 3: NK11 at 1 μM, other compounds at 5 μM, vs negative control group (DMSO)
[6] = Test Example 3: NK11 at 1 μM, other compounds at 5 μM
[7] = 0.1, 0.5, 1 and 5 μM, 9 days differentiation, compared to DMSO-treated negative control

Row | SMILES | ALP production (C3H10T1/2 cells [1]; [5]) | expression level of ALP, osteogenesis marker (mRNA) [2] | expression levels of the adipocyte-related genes CD36, aP2 and PPARγ [3, 6] | effect of inhibiting adipocyte differentiation (C3H10T1/2 cells [4]) | ALP production (C3H10T1/2 cells [1]; [7]) | expression of ALP, osteogenesis marker (mRNA) ([2]; at the concentration of 5 μM) | expression levels of the adipocyte-related genes CD36, aP2 and PPARγ ([3]; 0.1, 0.5, 1 and 5 μM, mRNA, real-time PCR) | fat production by adipocytes (Oil Red O) (C3H10T1/2 cells [4]; [7]) | ALP production as compared to the NK11 compound (C3H10T1/2 cells [1]; Test Example 3: compound at 5 μM vs NK11 at 1 μM)
1 | COC(=O)[C@@H]1[C@@H](C(=O)OC)[C@H](c2cc(OC)c(O)c(OC)c2)O[C@H]1c1cc(OC)c(O)c(OC)c1 [Chemical Formula 2] | no difference in ALP production from the negative control group (DMSO) | no effect | no effect | no difference in the effect of inhibiting adipocyte differentiation from the negative control group (DMSO) |  |  |  |  | 
2 | COCOc1c(OC)cc([C@@H]2O[C@@H](c3cc(OC)c(OCOC)c(OC)c3)[C@H](CO)[C@H]2CO)cc1OC [Chemical Formula 4] | no difference in ALP production from the negative control group (DMSO) | no effect | no effect | no difference in the effect of inhibiting adipocyte differentiation from the negative control group (DMSO) |  |  |  |  | 
3 | COc1cc([C@@H]2O[C@@H](c3cc(OC)c(O)c(OC)c3)[C@H](COC(=O)/C=C/c3ccc(O)cc3)[C@H]2COC(=O)/C=C\c2ccc(O)cc2)cc(OC)c1O [Chemical Formula 8] |  |  |  |  | increased ALP production in a concentration-dependent manner | expressed highly | decreased the expression levels of the adipocyte-related genes CD36, aP2 and PPARγ in a concentration-dependent manner | inhibited fat production by adipocytes in a concentration-dependent manner | 
4 | COc1cc([C@@H]2O[C@@H](c3cc(OC)c(O)c(OC)c3)[C@H](COC(=O)/C=C/c3ccccc3)[C@H]2COC(=O)/C=C/c2ccccc2)cc(OC)c1O [Chemical Formula 9] | significant effect of promoting ALP production although slightly lower than that of NK11 | high | decreased | showed the effect of inhibiting adipocyte differentiation as the NK11 compound |  |  |  |  | about 2 times
5 | COc1cc([C@@H]2O[C@@H](c3cc(OC)c(O)c(OC)c3)[C@H](CO)[C@H]2CO)cc(OC)c1O [Chemical Formula 10] | no difference in ALP production from the negative control group (DMSO) | no effect | no effect | no difference in the effect of inhibiting adipocyte differentiation from the negative control group (DMSO) |  |  |  |  | 
6 | COc1cc([C@@H]2O[C@@H](c3cc(OC)c(O)c(OC)c3)[C@H](COC(C)=O)[C@H]2COC(C)=O)cc(OC)c1O [Chemical Formula 11] | no difference in ALP production from the negative control group (DMSO) | no effect | no effect | no difference in the effect of inhibiting adipocyte differentiation from the negative control group (DMSO) |  |  |  |  | 
